What was measured:
[1] = target: T1, Human opioid (ORL1) (Homo sapiens, UniProt P41146); experiment: Radioligand binding, human opioid ORL1 membranes, FlashPlate, [125I]-Nociceptin; conditions: compound at 10 μM; human ORL1 membranes
T1 construct: purchased Perkin Elmer Biosignal
How it was run: (§1)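 Cloned human receptor membranes were coated onto FlashPlate wells and incubated with radioligand and compound (added from a 0.5 mM DMSO daughter plate) for 1 hour at room temperature in the dark. Scintillation counting gave percent inhibition, with DMSO defining total and reference ligand defining non-specific binding.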

[2] = target: T2, Mouse urotensin (mUR2) (Mus musculus, UniProt Q8VIH9); experiment: Radioligand binding, mouse urotensin mUR2 membranes, FlashPlate, [125I]-Urotensin II; conditions: compound at 10 μM; mouse urotensin mUR2 membranes
T2 construct: purchased Perkin Elmer Biosignal
T2 sequence (Q8VIH9 1-385): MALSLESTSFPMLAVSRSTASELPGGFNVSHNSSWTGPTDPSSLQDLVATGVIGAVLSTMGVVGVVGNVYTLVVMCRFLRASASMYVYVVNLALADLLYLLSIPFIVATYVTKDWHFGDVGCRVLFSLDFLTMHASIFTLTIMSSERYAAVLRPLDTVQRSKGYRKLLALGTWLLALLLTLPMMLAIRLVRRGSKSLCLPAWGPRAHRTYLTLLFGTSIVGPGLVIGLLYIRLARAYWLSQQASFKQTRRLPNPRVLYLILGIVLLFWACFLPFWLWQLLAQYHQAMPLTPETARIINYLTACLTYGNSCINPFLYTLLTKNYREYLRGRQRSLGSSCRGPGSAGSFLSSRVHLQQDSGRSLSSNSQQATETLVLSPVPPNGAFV
How it was run: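 Cloned mouse urotensin (mUR2) receptor membranes from Perkin Elmer Biosignal were immobilized in FlashPlate microplates using a proprietary coating. Each well got 19.5 μl buffer, then 0.5 μl of DMSO, reference ligand, or compound. Adding 5 μl of [125I]-Urotensin II, diluted to 5× final concentration in binding buffer, started binding. Plates were sealed with TopSeal-A and incubated 1 hour at room temperature in the dark. Wells were counted for 30 seconds each on a TopCount after a 60-second delay, and percentage inhibition was calculated.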

[3] = target: T3, Human melanocortin (MC5) (Homo sapiens, UniProt P33032); experiment: Radioligand binding, human melanocortin MC5 membranes, FlashPlate, [125I]-NDP-αMSH; conditions: compound at 10 μM; human melanocortin MC5 membranes
T3 construct: purchased Perkin Elmer Biosignal
How it was run: as §1

[4] = target: T4, Human melanin-concentrating hormone (MCH1) (Homo sapiens, UniProt Q99705); experiment: Radioligand binding, human melanin-concentrating hormone MCH1 membranes, FlashPlate, [125I]-S36057; conditions: compound at 10 μM; human MCH1 membranes
T4 construct: purchased Perkin Elmer Biosignal
How it was run: as §1

[5] = target: T5, Human μ-opioid (MOP) (Homo sapiens, UniProt P35372); experiment: Radioligand binding, human μ-opioid (MOP) membranes, FlashPlate, [3H]-Naloxone; conditions: compound at 10 μM; human μ-opioid (MOP) membranes
T5 construct: purchased Perkin Elmer Biosignal
How it was run: as §1

[6] = target: T6, Human δ-opioid (DOP) (Homo sapiens, UniProt P41143); experiment: Radioligand binding, human δ-opioid (DOP) membranes, FlashPlate, [3H]-Bremazocine; conditions: compound at 10 μM; human δ-opioid (DOP) membranes
T6 construct: purchased Perkin Elmer Biosignal
How it was run: as §1

[7] = target: T7, Human κ-Opioid (KOP) (Homo sapiens, UniProt P41145); experiment: Radioligand binding, human κ-opioid (KOP) membranes, filtration, [3H]-Diprenorphine; conditions: compound at 10 μM; human κ-opioid (KOP) membranes
T7 construct: purchased Perkin Elmer Biosignal
How it was run: (§2)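 Filtration binding on cloned human receptor membranes (1 Unit/well), [125I]-Substance P for NK1 and [3H]-Diprenorphine for KOP, 1 h at room temperature. Filters PEI-presoaked, washed with cold 50 mM Tris-HCl pH 7.4, counted by scintillation; percent inhibition calculated, reference ligand defining non-specific binding.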

[8] = target: T8, Human neurokinin (NK1) (Homo sapiens, UniProt P25103); experiment: Radioligand binding, human neurokinin NK1 membranes, filtration, [125I]-Substance P; conditions: compound at 10 μM; human neurokinin NK1 membranes
T8 construct: purchased Perkin Elmer Biosignal
How it was run: as §2

[9] = target: T9, Human Melanocortin (MC3) (Homo sapiens, UniProt P41968); experiment: Radioligand binding, human melanocortin MC3 membranes, FlashPlate, [125I]-NDP-αMSH; conditions: compound at 10 μM; human melanocortin MC3 membranes
T9 construct: purchased Perkin Elmer Biosignal
How it was run: as §1

[10] = target: T10, Human neuropeptide Y (NPY-Y1) (Homo sapiens, UniProt P25929); experiment: Radioligand binding, human neuropeptide Y NPY-Y1 membranes, FlashPlate, [125I]-PYY; conditions: compound at 10 μM; human NPY-Y1 membranes
T10 construct: purchased Perkin Elmer Biosignal
T10 sequence (P25929 1-384): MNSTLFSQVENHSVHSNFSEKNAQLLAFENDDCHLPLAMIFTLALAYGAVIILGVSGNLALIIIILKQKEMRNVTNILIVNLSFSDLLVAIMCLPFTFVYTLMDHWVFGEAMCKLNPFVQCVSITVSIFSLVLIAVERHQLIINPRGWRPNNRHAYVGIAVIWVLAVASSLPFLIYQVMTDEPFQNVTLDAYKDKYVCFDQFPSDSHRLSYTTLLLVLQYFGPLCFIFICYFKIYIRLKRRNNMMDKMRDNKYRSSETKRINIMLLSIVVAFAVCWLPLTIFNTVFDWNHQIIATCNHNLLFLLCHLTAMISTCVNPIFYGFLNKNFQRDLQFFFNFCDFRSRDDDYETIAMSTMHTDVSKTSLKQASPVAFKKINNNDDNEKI
How it was run: as §1

[11] = target: T11, Human Melanocortin (MC4) (Homo sapiens, UniProt P32245); experiment: Radioligand binding, human melanocortin MC4 membranes, FlashPlate, [125I]-NDP-αMSH; conditions: compound at 10 μM; human melanocortin MC4 membranes
T11 construct: purchased Perkin Elmer Biosignal
How it was run: as §1

T11 sequence (P32245 whole entry): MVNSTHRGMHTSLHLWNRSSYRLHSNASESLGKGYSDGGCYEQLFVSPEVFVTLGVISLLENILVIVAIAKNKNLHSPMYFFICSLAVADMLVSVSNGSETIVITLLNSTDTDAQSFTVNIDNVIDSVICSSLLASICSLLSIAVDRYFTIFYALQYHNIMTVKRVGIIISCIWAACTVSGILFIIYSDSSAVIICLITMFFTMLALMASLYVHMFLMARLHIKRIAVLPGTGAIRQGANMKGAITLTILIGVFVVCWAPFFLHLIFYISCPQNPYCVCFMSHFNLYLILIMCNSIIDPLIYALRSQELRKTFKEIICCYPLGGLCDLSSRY
T8 sequence (P25103 whole entry): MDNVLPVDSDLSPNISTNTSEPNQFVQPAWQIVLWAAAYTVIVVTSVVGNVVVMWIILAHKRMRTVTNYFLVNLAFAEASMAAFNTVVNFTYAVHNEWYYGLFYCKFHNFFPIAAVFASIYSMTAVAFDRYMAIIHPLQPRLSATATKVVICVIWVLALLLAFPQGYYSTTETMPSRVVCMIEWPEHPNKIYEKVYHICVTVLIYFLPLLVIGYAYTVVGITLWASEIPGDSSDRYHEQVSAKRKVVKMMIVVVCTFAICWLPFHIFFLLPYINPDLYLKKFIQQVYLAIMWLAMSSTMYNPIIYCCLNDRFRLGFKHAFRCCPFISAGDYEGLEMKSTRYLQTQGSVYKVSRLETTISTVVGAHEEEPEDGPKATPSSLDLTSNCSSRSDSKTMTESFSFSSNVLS
T9 sequence (P41968 whole entry): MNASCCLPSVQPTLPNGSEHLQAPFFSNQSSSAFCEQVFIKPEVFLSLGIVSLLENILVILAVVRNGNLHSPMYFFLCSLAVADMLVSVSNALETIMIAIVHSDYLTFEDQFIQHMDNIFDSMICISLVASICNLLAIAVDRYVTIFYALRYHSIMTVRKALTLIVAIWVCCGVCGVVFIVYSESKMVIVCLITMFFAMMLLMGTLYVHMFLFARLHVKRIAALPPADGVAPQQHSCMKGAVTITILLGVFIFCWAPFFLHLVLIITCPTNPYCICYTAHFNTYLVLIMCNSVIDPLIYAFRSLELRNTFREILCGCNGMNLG
T1 sequence (P41146 whole entry): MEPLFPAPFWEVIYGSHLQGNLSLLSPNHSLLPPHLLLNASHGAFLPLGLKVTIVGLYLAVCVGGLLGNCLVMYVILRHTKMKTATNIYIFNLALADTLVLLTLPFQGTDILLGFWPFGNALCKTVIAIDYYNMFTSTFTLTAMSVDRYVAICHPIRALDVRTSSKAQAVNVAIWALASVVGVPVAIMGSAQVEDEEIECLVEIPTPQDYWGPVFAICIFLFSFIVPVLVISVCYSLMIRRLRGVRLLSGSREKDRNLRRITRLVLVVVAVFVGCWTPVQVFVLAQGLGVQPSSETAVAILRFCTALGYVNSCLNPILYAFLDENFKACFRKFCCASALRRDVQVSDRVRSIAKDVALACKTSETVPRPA
T7 sequence (P41145 whole entry): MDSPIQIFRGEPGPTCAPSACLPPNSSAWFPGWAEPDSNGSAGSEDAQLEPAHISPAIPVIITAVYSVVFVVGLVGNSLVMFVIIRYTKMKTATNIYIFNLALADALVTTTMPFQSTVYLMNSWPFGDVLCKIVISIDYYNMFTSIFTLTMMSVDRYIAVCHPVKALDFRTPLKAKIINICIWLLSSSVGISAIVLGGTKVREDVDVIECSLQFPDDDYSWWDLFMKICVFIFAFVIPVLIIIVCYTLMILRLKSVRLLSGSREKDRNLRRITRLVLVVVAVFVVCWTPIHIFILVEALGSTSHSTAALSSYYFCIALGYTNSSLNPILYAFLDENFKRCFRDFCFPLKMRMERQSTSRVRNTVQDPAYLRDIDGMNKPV
T6 sequence (P41143 whole entry): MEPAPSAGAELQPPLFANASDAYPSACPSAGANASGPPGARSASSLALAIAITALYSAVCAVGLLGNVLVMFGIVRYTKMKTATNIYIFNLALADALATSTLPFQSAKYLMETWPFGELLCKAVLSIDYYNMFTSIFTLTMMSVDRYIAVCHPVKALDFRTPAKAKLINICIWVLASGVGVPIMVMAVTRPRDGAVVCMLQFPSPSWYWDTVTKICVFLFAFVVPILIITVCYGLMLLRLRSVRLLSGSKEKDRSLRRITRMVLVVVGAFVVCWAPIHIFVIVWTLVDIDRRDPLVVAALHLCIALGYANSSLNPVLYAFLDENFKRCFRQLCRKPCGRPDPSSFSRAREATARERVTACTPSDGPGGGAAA
T4 sequence (Q99705 whole entry): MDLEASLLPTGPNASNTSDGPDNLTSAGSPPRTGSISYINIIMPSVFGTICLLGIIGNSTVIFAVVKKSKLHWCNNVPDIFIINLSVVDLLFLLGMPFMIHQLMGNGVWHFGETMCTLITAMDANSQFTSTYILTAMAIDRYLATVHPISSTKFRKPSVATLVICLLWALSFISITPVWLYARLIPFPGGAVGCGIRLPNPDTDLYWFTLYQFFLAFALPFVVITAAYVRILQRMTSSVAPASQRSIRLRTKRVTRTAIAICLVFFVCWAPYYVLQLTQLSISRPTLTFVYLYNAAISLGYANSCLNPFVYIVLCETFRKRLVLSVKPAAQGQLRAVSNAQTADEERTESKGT
T3 sequence (P33032 whole entry): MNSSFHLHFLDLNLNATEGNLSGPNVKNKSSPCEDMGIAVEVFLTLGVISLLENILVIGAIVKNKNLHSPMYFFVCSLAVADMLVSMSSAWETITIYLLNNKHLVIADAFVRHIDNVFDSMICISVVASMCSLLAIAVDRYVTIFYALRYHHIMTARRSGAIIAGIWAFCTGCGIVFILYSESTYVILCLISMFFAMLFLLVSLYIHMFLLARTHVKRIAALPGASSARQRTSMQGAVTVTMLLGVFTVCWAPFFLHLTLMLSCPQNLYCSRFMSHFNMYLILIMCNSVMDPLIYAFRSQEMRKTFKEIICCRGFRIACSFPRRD
T5 sequence (P35372 whole entry): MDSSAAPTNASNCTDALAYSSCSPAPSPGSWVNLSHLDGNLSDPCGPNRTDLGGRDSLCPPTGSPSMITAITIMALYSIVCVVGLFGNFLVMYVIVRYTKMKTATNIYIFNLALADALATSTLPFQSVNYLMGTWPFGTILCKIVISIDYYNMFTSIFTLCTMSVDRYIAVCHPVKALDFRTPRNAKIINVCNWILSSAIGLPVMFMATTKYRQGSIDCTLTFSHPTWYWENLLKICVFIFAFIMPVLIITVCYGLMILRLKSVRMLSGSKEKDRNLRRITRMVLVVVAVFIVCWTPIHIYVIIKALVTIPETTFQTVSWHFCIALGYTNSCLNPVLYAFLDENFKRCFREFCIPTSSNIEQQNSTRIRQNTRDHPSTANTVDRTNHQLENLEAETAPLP

Compound	A10 radioligand binding inhibition [1]	A11 radioligand binding inhibition [2]	A5 radioligand binding inhibition [3]	A6 radioligand binding inhibition [4]	A7 radioligand binding inhibition [5]	A1 radioligand binding inhibition [6]	A2 radioligand binding inhibition [7]	A8 radioligand binding inhibition [8]	A3 radioligand binding inhibition [9]	A9 radioligand binding inhibition [10]	A4 radioligand binding inhibition [11]
COC[C@H]1OC(OCc2ccc(-c3ccccc3)cc2)[C@H](NC(=O)CNC(=N)N)[C@@H](OCc2ccc(-c3ccccc3)cc2)[C@@H]1O (stereo partly shown) [compound 1]	− (“−” indicates less than 50% inhibition at 10 μM)	− (“−” indicates less than 50% inhibition at 10 μM)	+ (“+” indicates greater than 50% inhibition at 10 μM)	+ (“+” indicates greater than 50% inhibition at 10 μM)	− (“−” indicates less than 50% inhibition at 10 μM)	− (“−” indicates less than 50% inhibition at 10 μM)	− (“−” indicates less than 50% inhibition at 10 μM)	+ (“+” indicates greater than 50% inhibition at 10 μM)	+ (“+” indicates greater than 50% inhibition at 10 μM)	− (“−” indicates less than 50% inhibition at 10 μM)	+ (“+” indicates greater than 50% inhibition at 10 μM)
COC[C@H]1OC(OCc2ccc(-c3ccccc3)cc2)[C@H](NC(=O)CCCN)[C@@H](OCc2ccc(-c3ccccc3)cc2)[C@@H]1O (stereo partly shown) [compound 2]	− (“−” indicates less than 50% inhibition at 10 μM)	− (“−” indicates less than 50% inhibition at 10 μM)	+ (“+” indicates greater than 50% inhibition at 10 μM)	+ (“+” indicates greater than 50% inhibition at 10 μM)	− (“−” indicates less than 50% inhibition at 10 μM)	− (“−” indicates less than 50% inhibition at 10 μM)	− (“−” indicates less than 50% inhibition at 10 μM)	+ (“+” indicates greater than 50% inhibition at 10 μM)	− (“−” indicates less than 50% inhibition at 10 μM)	− (“−” indicates less than 50% inhibition at 10 μM)	+ (“+” indicates greater than 50% inhibition at 10 μM)
COC[C@H]1OC(OCc2ccc(-c3ccccc3)cc2)[C@H](NC(=O)CNC(=N)N)[C@@H](OCc2ccc3ccccc3c2)[C@@H]1O (stereo partly shown) [compound 3]	− (“−” indicates less than 50% inhibition at 10 μM)	− (“−” indicates less than 50% inhibition at 10 μM)	+ (“+” indicates greater than 50% inhibition at 10 μM)	+ (“+” indicates greater than 50% inhibition at 10 μM)	− (“−” indicates less than 50% inhibition at 10 μM)	− (“−” indicates less than 50% inhibition at 10 μM)	− (“−” indicates less than 50% inhibition at 10 μM)	+ (“+” indicates greater than 50% inhibition at 10 μM)	− (“−” indicates less than 50% inhibition at 10 μM)	− (“−” indicates less than 50% inhibition at 10 μM)	− (“−” indicates less than 50% inhibition at 10 μM)
COC[C@H]1OC(OCc2ccc(-c3ccccc3)cc2)[C@H](NC(=O)CCNC(=N)N)[C@@H](OCc2ccc3ccccc3c2)[C@@H]1O (stereo partly shown) [compound 4]	− (“−” indicates less than 50% inhibition at 10 μM)	− (“−” indicates less than 50% inhibition at 10 μM)	+ (“+” indicates greater than 50% inhibition at 10 μM)	+ (“+” indicates greater than 50% inhibition at 10 μM)	− (“−” indicates less than 50% inhibition at 10 μM)	− (“−” indicates less than 50% inhibition at 10 μM)	− (“−” indicates less than 50% inhibition at 10 μM)	+ (“+” indicates greater than 50% inhibition at 10 μM)	− (“−” indicates less than 50% inhibition at 10 μM)	− (“−” indicates less than 50% inhibition at 10 μM)	− (“−” indicates less than 50% inhibition at 10 μM)
COC[C@H]1OC(OCc2ccc(-c3ccccc3)cc2)[C@H](NC(=O)CCCN)[C@@H](OCc2ccc3ccccc3c2)[C@@H]1O (stereo partly shown) [compound 5]	− (“−” indicates less than 50% inhibition at 10 μM)	− (“−” indicates less than 50% inhibition at 10 μM)	+ (“+” indicates greater than 50% inhibition at 10 μM)	− (“−” indicates less than 50% inhibition at 10 μM)	− (“−” indicates less than 50% inhibition at 10 μM)	− (“−” indicates less than 50% inhibition at 10 μM)	− (“−” indicates less than 50% inhibition at 10 μM)	+ (“+” indicates greater than 50% inhibition at 10 μM)	− (“−” indicates less than 50% inhibition at 10 μM)	− (“−” indicates less than 50% inhibition at 10 μM)	− (“−” indicates less than 50% inhibition at 10 μM)
